Results as given in ChEMBL document CHEMBL1138895, “Synthesis and antibacterial activity of nocathiacin I analogues” (Bioorg Med Chem Lett, 2006).
Values after ≈ are worked out from the molar mass of the structure shown.

Key:
Staphylococcus aureus = experiment: Antibacterial activity against methicillin-sensitive Staphylococcus aureus A15090; type: functional
Mus musculus = species: Mus musculus; experiment: Activity against Staphylococcus aureus A15090 infected ICR mouse after 8 days; type: functional; settings: 192 h, read-out: PD50
Streptococcus pneumoniae = experiment: Antibacterial activity against penicillin resistant Streptococcus pneumoniae A28272; type: functional
Enterococcus faecalis = experiment: Antibacterial activity against […] A20688; type: functional
[1] = Solubility at pH 3.1; type: physicochemical; settings: buffer
[2] = Solubility at pH 3.0; type: physicochemical; settings: buffer
[3] = Solubility at pH 3.2; type: physicochemical; settings: buffer
[4] = Solubility at pH 2.9; type: physicochemical; settings: buffer

| Compound | MIC (Staphylococcus aureus) | ED50 (Mus musculus) | MIC (Streptococcus pneumoniae) | MIC (Enterococcus faecalis) | solubility [1] | solubility [2] | solubility [3] | solubility [4] |
| --- | --- | --- | --- | --- | --- | --- | --- | --- |
| CO/C(C)=C1/NC(=O)[C@H]([C@@H](C)O)NC(=O)c2csc(n2)-c2cc(O)c(-c3nc(C(=O)N[C@@H](C)C(=O)NCc4ccc(O)cc4)cs3)nc2-c2csc(n2)[C@@H]2COC(=O)c3c4c5c(cccc5n3O)COC(=O)[C@@H](O[C@H]3C[C@](C)(O)[C@H](N(C)C)[C@H](C)O3)[C@@H](OC4)[C@H](NC(=O)c3csc1n3)c1nc(cs1)C(=O)N2 | 0.007 µg/mL (≈ 0.00453 µM) | 4.35 mg/kg | 0.007 µg/mL (≈ 0.00453 µM) | 0.03 µg/mL (≈ 0.0194 µM) | 480 µg/mL (≈ 311 µM) |  |  |  |
| CO/C(C)=C1/NC(=O)[C@H]([C@@H](C)O)NC(=O)c2csc(n2)-c2cc(O)c(-c3nc(C(=O)N[C@@H](C)C(=O)NC(CC(=O)O)C(=O)O)cs3)nc2-c2csc(n2)[C@@H]2COC(=O)c3c4c5c(cccc5n3O)COC(=O)[C@@H](O[C@H]3C[C@](C)(O)[C@H](N(C)C)[C@H](C)O3)[C@@H](OC4)[C@H](NC(=O)c3csc1n3)c1nc(cs1)C(=O)N2 (some centres undefined) | 16 µg/mL (≈ 10.3 µM) |  | 0.25 µg/mL (≈ 0.161 µM) | 16 µg/mL (≈ 10.3 µM) |  |  |  |  |
| CO/C(C)=C1/NC(=O)[C@H]([C@@H](C)O)NC(=O)c2csc(n2)-c2cc(O)c(-c3nc(C(=O)N[C@@H](C)C(=O)NCCc4ccc(O)c(O)c4)cs3)nc2-c2csc(n2)[C@@H]2COC(=O)c3c4c5c(cccc5n3O)COC(=O)[C@@H](O[C@H]3C[C@](C)(O)[C@H](N(C)C)[C@H](C)O3)[C@@H](OC4)[C@H](NC(=O)c3csc1n3)c1nc(cs1)C(=O)N2 | 0.25 µg/mL (≈ 0.159 µM) | > 10 mg/kg | 0.125 µg/mL (≈ 0.0793 µM) | 0.5 µg/mL (≈ 0.317 µM) |  | 7 µg/mL (≈ 4.44 µM) |  |  |
| CO/C(C)=C1/NC(=O)[C@H]([C@@H](C)O)NC(=O)c2csc(n2)-c2cc(O)c(-c3nc(C(=O)N[C@@H](C)C(=O)N(C)C[C@@H](O)[C@@H](O)[C@@H](O)[C@@H](O)CO)cs3)nc2-c2csc(n2)[C@@H]2COC(=O)c3c4c5c(cccc5n3O)COC(=O)[C@@H](O[C@H]3C[C@](C)(O)[C@H](N(C)C)[C@H](C)O3)[C@@H](OC4)[C@H](NC(=O)c3csc1n3)c1nc(cs1)C(=O)N2 | 0.125 µg/mL (≈ 0.0773 µM) |  | 0.015 µg/mL (≈ 0.00927 µM) | 0.5 µg/mL (≈ 0.309 µM) |  |  | > 2400 µg/mL |  |
| CO/C(C)=C1/NC(=O)[C@H]([C@@H](C)O)NC(=O)c2csc(n2)-c2cc(O)c(-c3nc(C(=O)N[C@@H](C)C(=O)N4CCC(O)CC4)cs3)nc2-c2csc(n2)[C@@H]2COC(=O)c3c4c5c(cccc5n3O)COC(=O)[C@@H](O[C@H]3C[C@](C)(O)[C@H](N(C)C)[C@H](C)O3)[C@@H](OC4)[C@H](NC(=O)c3csc1n3)c1nc(cs1)C(=O)N2 | 0.007 µg/mL (≈ 0.00459 µM) | 4.35 mg/kg | 0.003 µg/mL (≈ 0.00197 µM) | 0.06 µg/mL (≈ 0.0394 µM) |  |  | 1100 µg/mL (≈ 722 µM) |  |
| CO/C(C)=C1/NC(=O)[C@H]([C@@H](C)O)NC(=O)c2csc(n2)-c2cc(O)c(-c3nc(C(=O)N[C@@H](C)C(=O)NCCc4cc(O)cc(O)c4)cs3)nc2-c2csc(n2)[C@@H]2COC(=O)c3c4c5c(cccc5n3O)COC(=O)[C@@H](O[C@H]3C[C@](C)(O)[C@H](N(C)C)[C@H](C)O3)[C@@H](OC4)[C@H](NC(=O)c3csc1n3)c1nc(cs1)C(=O)N2 | 0.25 µg/mL (≈ 0.159 µM) | > 10 mg/kg | 0.06 µg/mL (≈ 0.0381 µM) | 0.5 µg/mL (≈ 0.317 µM) |  | 20 µg/mL (≈ 12.7 µM) |  |  |
| CO/C(C)=C1/NC(=O)[C@H]([C@@H](C)O)NC(=O)c2csc(n2)-c2cc(O)c(-c3nc(C(=O)N[C@@H](C)C(=O)NCc4ccc(O)c(O)c4)cs3)nc2-c2csc(n2)[C@@H]2COC(=O)c3c4c5c(cccc5n3O)COC(=O)[C@@H](O[C@H]3C[C@](C)(O)[C@H](N(C)C)[C@H](C)O3)[C@@H](OC4)[C@H](NC(=O)c3csc1n3)c1nc(cs1)C(=O)N2 | 0.03 µg/mL (≈ 0.0192 µM) | > 10 mg/kg | 0.007 µg/mL (≈ 0.00448 µM) | 0.06 µg/mL (≈ 0.0384 µM) |  |  |  | 20 µg/mL (≈ 12.8 µM) |
| CO/C(C)=C1/NC(=O)[C@H]([C@@H](C)O)NC(=O)c2csc(n2)-c2cc(O)c(-c3nc(C(=O)N[C@@H](C)C(=O)NCCc4ccc(O)cc4)cs3)nc2-c2csc(n2)[C@@H]2COC(=O)c3c4c5c(cccc5n3O)COC(=O)[C@@H](O[C@H]3C[C@](C)(O)[C@H](N(C)C)[C@H](C)O3)[C@@H](OC4)[C@H](NC(=O)c3csc1n3)c1nc(cs1)C(=O)N2 | 0.003 µg/mL (≈ 0.00192 µM) | > 10 mg/kg | 0.0005 µg/mL (≈ 0.000321 µM) | 0.007 µg/mL (≈ 0.00449 µM) |  |  | 120 µg/mL (≈ 76.9 µM) |  |
| CO/C(C)=C1/NC(=O)[C@H]([C@@H](C)O)NC(=O)c2csc(n2)-c2cc(O)c(-c3nc(C(=O)N[C@@H](C)C(=O)NCCOCCOCCOCCOCCOCCOC4O[C@H](CO)[C@@H](O)[C@H](O)[C@H]4O)cs3)nc2-c2csc(n2)[C@@H]2COC(=O)c3c4c5c(cccc5n3O)COC(=O)[C@@H](O[C@H]3C[C@](C)(O)[C@H](N(C)C)[C@H](C)O3)[C@@H](OC4)[C@H](NC(=O)c3csc1n3)c1nc(cs1)C(=O)N2 (some centres undefined) | 4 µg/mL (≈ 2.14 µM) |  | 1 µg/mL (≈ 0.536 µM) | 8 µg/mL (≈ 4.29 µM) |  |  |  | > 3700 µg/mL |
| COCCOCCOCCOCCNC(=O)[C@H](C)NC(=O)c1csc(-c2nc3c(cc2O)-c2nc(cs2)C(=O)N[C@@H]([C@@H](C)O)C(=O)N/C(=C(\C)OC)c2nc(cs2)C(=O)N[C@@H]2c4nc(cs4)C(=O)N[C@@H](COC(=O)c4c5c6c(cccc6n4O)COC(=O)[C@@H](O[C@H]4C[C@](C)(O)[C@H](N(C)C)[C@H](C)O4)[C@H]2OC5)c2nc-3cs2)n1 | 0.06 µg/mL (≈ 0.0368 µM) |  | 0.003 µg/mL (≈ 0.00184 µM) | 0.5 µg/mL (≈ 0.307 µM) |  |  |  |  |
